The values that follow come from patent US20230212571A1, “COMPOSITIONS AND METHODS FOR DELIVERING POLYNUCLEOTIDES” (NeOnc Technologies, Inc., priority 2020, published 2023).

Series [1] relates to Mgp^−/− mouse model of AVM. Put plainly: Organ histology and complete blood count. Type of series: in vivo. The settings on record: Mgp^−/− mice, IN 2-weeks. The protocol: In vivo efficacy studies were performed using 3-week-old Mgp^+/- C57BL/6 mice^16,17 (Yao Y, Jumabay M, Wang A, Boström K I. Matrix Gla protein deficiency causes arteriovenous malformations in mice. J Clin Invest. 2011; 121(8):2993-3004) (Yao Y, Yao […], et al. Reducing Jagged 1 and 2 levels prevents cerebral arteriovenous malformations in matrix Gla protein deficiency. Proc Nat Acad Sci USA. 2013; 110(47):19071-19076). provided by Dr. Yucheng Yao (UCLA, Los Angeles) and mated to obtain the appropriate genotypes. Only about 10-15% of each litter were born with the Mgp^-/- genotype, and among those, only about 45% survived until the end of the treatment and/or the imaging of the brain vasculature, due to the extreme severity of the disease in this mouse model. These animals not only suffer AVMs in the brain, but all major organs are also affected and dysfunctional. Thus, […] might die due to several causes, including stroke, severe lung inflammation that causes respiratory failure-especially when anesthesia is used-, organ failure due to liver and/or spleen malfunction, heart failure, etc., drastically limiting the number of the Mgp^-/- mice available for the CTA studies. […] Treatment with 0.08 nmol/mouse of miR-18a or scramble microRNA was administered IN daily for 2-weeks. 2.5 μL/nostril were delivered in RNase-free water. Ultra-high-resolution in vivo computed tomography angiography (CTA) was performed in mice for 3D imaging of whole brain vascular architecture^18, ([…], Rendon D, et al. Ultra-High-Resolution In vivo Computed Tomography Imaging of Mouse Cerebrovasculature Using a Long Circulating Blood Pool Contrast Agent. Scientific reports. 2015; 5:10178) as described in Data. The vascular data was quantified using ImageJ. Regions of interest encompassing the Circle of Willis (CoW) and the azygous of the anterior cerebral artery (AzACA) and its branches were selected in CT images using thick slab maximum intensity projection (MIP) or 3D volume rendering. The images were converted to 8-bit grayscale and thresholded to highlight the vasculature containing pixels. The pixels were analyzed as particles and normalized to results from the wildtype mice (WT, Mgp^+/+). Immediately after imaging, mice were euthanized, and brains were frozen in Clear Frozen Section Compound (VWR) and stored at -80° C. Blood was collected for complete blood count (Antech). The lungs, livers, spleens, femurs, and kidneys were harvested and fixed in 10% formalin. Photographs of the stained sections were captured using an Eclipse 80i microscope (Nikon).

The subject of series [2] is AVM-BEC. The experiment in a line: Immunostaining of MMP2 and MMP9 in AVM-BEC. In kind it is cell-based, human. The protocol:
Immunostaining was performed as previously described^15. (Virrey J J, Golden E B, Sivakumar W, et al. Glioma-associated endothelial cells are chemoresistant to temozolomide. J Neurooncol. 2009; 95(1):13-22). Primary antibodies used were rabbit anti-MMP2, mouse anti-MMP9 (1:150, Abgent), rabbit anti-phospho-Smad1/5 (Ser463/465) (1:50, Abgent), rabbit anti-BMP4, rabbit anti-PAI-1 (1:50, Proteintech), rabbit anti-VEGF (1:50, Santa Cruz Biotechnology), rabbit anti-HIF-1α (1:50, Cell Signaling Technology), and rabbit anti-phospho-Smad3 (Ser423/425) (1:50, GeneTex). Secondary antibodies used were biotinylated anti-rabbit and biotinylated anti-mouse (1:300, Vector Laboratories), accordingly. Pictures were taken in an Eclipse 80i microscope (Nikon). Images shown are representative of three-five independent experiments.

For series [3], the system named is AVM-BEC. The experiment in a line: Proteome Profiler Human Angiogenesis Array of AVM-BEC lysates. In kind it is cell-based. The source says:
Human surgical specimens were obtained following written informed consent from patients in accordance with Declaration of Helsinki guidelines and the Institutional Review Board (HS-04B053), at Keck School of Medicine, USC. AVM-BECs were isolated from brain tissues of patients who underwent microsurgical AVM resection. Control BECs were isolated from the structurally normal […] of patients who underwent temporal lobectomy for intractable epilepsy. Endothelial cell (EC) isolation and culture were described^5,9. (Stapleton C J, Armstrong D L, Zidovetzki R, Liu C Y, Giannotta S L, Hofman F M. Thrombospondin-1 modulates the angiogenic phenotype of human cerebral arteriovenous malformation endothelial cells. Neurosurgery. 2011; 68(5):1342-1353) (Ferreira R, Santos T, Amar A, et al. Argonaute-2 promotes miR-18a entry in human brain endothelial cells. J Am Heart Assoc. 2014; 3(3):e000968) ECs were only used between passages 3-5. Experiments were performed under shear flow conditions (12 dyn/cm^2) to reproduce arterial flow^6. (Ferreira R, Santos T, Amar A, et al. MicroRNA-18a improves human cerebral arteriovenous malformation endothelial cell function. Stroke. 2014; 45(1):293-297). For hypoxic experiments, cells were cultured in a Galaxy 48R (Eppendorf) incubator at 3% O2. MicroRNAs were co-administered with Ago-2 to increase the cellular uptake of miR-18a^9 (Ferreira R, Santos T, Amar A, et al. Argonaute-2 promotes miR-18a entry in human brain endothelial cells. J Am Heart Assoc. 2014; 3(3):e000968) (FIG. 9). Methods regarding cell treatments and transfections were included in Data.
MiR-18a (hsa-miR-18a-5p, 40 nM, Dharmacon) or a scramble microRNA (40 nM, Dharmacon) in nuclease-free water was added with argonaute 2 (Ago-2, 0.4 nM, Abcam) as the microRNA carrier and stabilizer^9. (Ferreira R, Santos T, Amar A, et al. Argonaute-2 promotes miR-18a entry in human brain endothelial cells. J Am Heart Assoc. 2014; 3(3):e000968). No transfection reagent was used with miR-18a or scramble microRNA treatments. Recombinant human TSP-1 (R&D Systems) stock solution was prepared in PBS and further diluted in culture medium to be used at a final concentration of 1000 ng/mL. Cells were treated during 24 h for mRNA and 48 h for protein expression studies. NEO100 (NeOnc Technologies) stock was prepared in DMSO and used immediately or stored at −20° C.
The levels of angiogenesis-related proteins were analyzed using the Proteome Profiler™ Human Angiogenesis Array kit (R&D Systems) following the manufacturer's instructions. The protocol for western blot was published^10. (Marín-Ramos N I, Alonso D, Ortega-Gutiérrez S, et al. New inhibitors of angiogenesis with antitumor activity in vivo. J Med Chem. 2015; 58(9):3757-3766). Information about antibodies used was included in Table 1. Membranes were visualized and quantified using a C-Digit Blot scanner (Li-Cor) or a iBright CL1000 (Thermo Fisher Scientific).

Consider “hsa-miR-18a-5p (UAGGUGCAUCUAGUGCAGAUAG; chemistry not given here; listed as Homo sapiens) [small non-coding RNA molecule involved in post-transcriptional regulation of gene expression; Dharmacon]”, for which, in series [1], the “bone marrow phenotype (adipose cells, megakaryocytes)” value was “normalized”; the “macrophages in alveoli, lung inflammation” value is “not present”; the polychromasia result is listed as “minimal or not present”; the “spleens, macroscopic, compared with Mgp^+/+ and Mgp^−/+” value is reported as “comparable”. Moreover, in series [1] (n=3), the “blood levels of hematocrit (HCT)” value was “normalized”, the “blood levels of hemoglobin (HGB)” value is “normalized” and the “blood levels of red blood cells (RBC)” value is given as “normalized”. Besides, in series [2], the “MMP9 expression (immunostaining)” value is reported as “did not decrease”. Also, the “bFGF levels, decrease compared to scramble miR-treated AVM-BEC” value in series [3] (shear flow 12 dyn/cm2, miR-18a 40 nM with Ago-2 0.4 nM, n=1) was 2 fold. Besides, the “IGFBP-1 levels, upregulation compared to scramble miR-treated AVM-BEC” value in series [3] (shear flow, miR-18a 40 nM with Ago-2, n=1) is recorded as 2 fold. Also, in series [3] (vs scramble miR, n=1), the “TSP-1 protein levels in AVM-BEC lysates” value is “did not observe any relevant differences”, the “downregulation of PAI-1” value is listed as 20%, the “upregulation of endothelin-1 (ET-1)” value is on record as greater than 20% and the “upregulation of pentraxin 3 (PTX3)” value is recorded as greater than 20%.
